Tested on: pulmonary vascular resistance (PVR)
Assay: Phase 1b, patients with PAH or CTEPH, inhaled single doses, right heart catheterization: PVR and mPAP (C-4.4)
Format: in vivo, human
Procedure: Patients with PAH or CTEPH were treated in a clinical phase 1b study with escalating orally inhaled single* doses of 240 μg (2 capsules of 120 μg), 480 μg, 1000 μg, 2000 (2 capsules of 1000 μg) or 4000 μg (4 capsules of 1000 μg) of a dry powder of example 4 (see under D-1, e.g. tables 17 and 20), inserted into a handheld inhalation device, inhaled by deep inhalative breath into the deep parts of the lung. (*single dose means the administration of one dosage form/capsule as well as administration of two or more dosage forms/capsules simultaneously or consecutively within a short time period). The included patients had no background treatment with standard of care (SoC) medication for PAH or CTEPH (such as endothelin antagonists, prostanoids, phosphodiesterase type 5 inhibitor or soluble guanylate cyclase stimulators). Patients in this study underwent invasive right heart catheterization as medically indicated routine diagnostic. Primary objective of the study was to investigate the peak percent reduction from baseline in PVR. Patients had to have a baseline pulmonary artery pressure (mPAP) of ≥25 mmHg and a PVR of ≥400 dyn·sec·cm^−5 (5 Wood Units) and were not to show vaso-responsiveness to initial iNO inhalation testing to be included in the per protocol analysis. Plasma concentrations (pharmacokinetics) of the administered drug at several time points after administration were measured and safety and tolerability was assessed.
The study is divided into two parts, Part A and Part B. In Part A escalating aforementioned single doses were administered to patients without background treatment with standard of care (SoC) medication for PAH or CTEPH (such as endothelin antagonists, prostanoids, phosphodiesterase type 5 inhibitor or soluble guanylate cyclase stimulators). In Part B, after finalization of Part A, a selected dose from PartA will be tested in further patients without background SoC treatment (group 1) and additionally in patients on monotherapy with SoC (group 2) and on dual combination therapy with SoC (group 3).
The PVR is a derived parameter from parameters directly measured during the right heart catheterization procedure. The direct parameters included in the calculation are: mean pulmonary arterial pressure [mmHg](mPAP), pulmonary capillary wedge pressure [mmHg] (PCWP), and cardiac output [l/min] (CO). The PVR is calculated according to the formula: PVR [dyn*see*cm^−5]=80*(mPAP-PCWP)/CO.
Overall 38 patients received a dose of dry powder of example 4. A total of 4 patients in each dose group were included into the per protocol set as planned (total 20 patients). A dose-dependent mean change of PVR from baseline could be clearly observed peaking in an enduring mean change of approximately −30% in the 2000 μg and 4000 μg groups (for details of PVR see FIG. 82 and table C4.4.1). The decreases in PVR were predominantly driven by decreases in pulmonary arterial pressure (for details of mean PAP see FIG. 83 and table C4.4.2). A mean peak change level of −20%—as the predefined relevant threshold level—was clearly exceeded peaking in the 2000 μg and 4000 μg groups (mean peak changes were: −21.0%, −16.1%, −25.9%, −38.1%, −36.3% for 240, 480, 1000, 2000, and 4000 μg, respectively). The magnitude of mean change in PVR of −30% from baseline was at the same level as for the inhaled competitor Treprostinil (Tyvaso®) after single administration in a historical comparison [Voswinckel et al, Journal of American College of Cardiology Vol. 48, No. 8, 2006 Oct. 17, 2006:1672-81]. However, the effect after example 4 application was advantageously sustained with no decrease in response until the end of the measurement period of 3 h (a measurement period of >3 h was technically not feasible for the patients with right heart catheter in the study). […] Increase of systemic cGMP (cyclic Guanosine Monophosphate) confirmed strong target engagement of sGC activation. […]

[1] = 240 μg, 0 D 00 H 00 M (baseline)
[2] = 480 μg, 0 D 00 H 00 M (baseline)
[3] = 1000 μg, 0 D 00 H 00 M (baseline)
[4] = 2000 μg, 0 D 00 H 00 M (baseline)
[5] = 4000 μg, 0 D 00 H 00 M (baseline)

O=C(O)c1ccc(CCN(CCc2ccccc2OCc2ccc(-c3ccc(C(F)(F)F)cc3)cc2Cl)[C@H]2CCCc3nc(C(=O)O)ccc32)cc1 [example 4, (5S)-{[2-(4-Carboxyphenyl)ethyl][2-(2-{[3-chloro-4′-(trifluoromethyl)biphenyl-4-yl]methoxy}phenyl)-ethyl]amino}-5,6,7,8-tetrahydroquinoline-2-carboxylic acid]
mean peak change of PVR from baseline (240 μg): −21.0% | mean pulmonary arterial pressure (mPAP), mean ± SD [1]: 42.8 ± 11.1 mmHg | pulmonary vascular resistance (PVR), mean ± SD [1]: 788.338 ± 416.914 dyn·sec·cm^−5 | mean pulmonary arterial pressure (mPAP), mean ± SD (240 μg, 0 D 00 H 30 M): 42.5 ± 11.0 mmHg | pulmonary vascular resistance (PVR), mean ± SD (240 μg, 0 D 00 H 30 M): 749.012 ± 398.928 dyn·sec·cm^−5 | mean pulmonary arterial pressure (mPAP), mean ± SD (240 μg, 0 D 01 H 00 M): 44.3 ± 10.4 mmHg | pulmonary vascular resistance (PVR), mean ± SD (240 μg, 0 D 01 H 00 M): 734.427 ± 396.799 dyn·sec·cm^−5 | mean pulmonary arterial pressure (mPAP), mean ± SD (240 μg, 0 D 01 H 30 M): 43.0 ± 8.0 mmHg | pulmonary vascular resistance (PVR), mean ± SD (240 μg, 0 D 01 H 30 M): 726.362 ± 364.099 dyn·sec·cm^−5 | mean pulmonary arterial pressure (mPAP), mean ± SD (240 μg, 0 D 02 H 00 M): 39.5 ± 7.9 mmHg | pulmonary vascular resistance (PVR), mean ± SD (240 μg, 0 D 02 H 00 M): 710.844 ± 410.668 dyn·sec·cm^−5 | mean pulmonary arterial pressure (mPAP), mean ± SD (240 μg, 0 D 02 H 30 M): 42.0 ± 6.5 mmHg | pulmonary vascular resistance (PVR), mean ± SD (240 μg, 0 D 02 H 30 M): 716.209 ± 419.311 dyn·sec·cm^−5 | mean pulmonary arterial pressure (mPAP), mean ± SD (240 μg, 0 D 03 H 00 M): 39.0 ± 4.2 mmHg | pulmonary vascular resistance (PVR), mean ± SD (240 μg, 0 D 03 H 00 M): 657.829 ± 291.191 dyn·sec·cm^−5 | mean peak change of PVR from baseline (480 μg): −16.1% | mean pulmonary arterial pressure (mPAP), mean ± SD [2]: 55.0 ± 8.6 mmHg | pulmonary vascular resistance (PVR), mean ± SD [2]: 1055.863 ± 317.077 dyn·sec·cm^−5 | mean pulmonary arterial pressure (mPAP), mean ± SD (480 μg, 0 D 00 H 30 M): 52.3 ± 8.4 mmHg | pulmonary vascular resistance (PVR), mean ± SD (480 μg, 0 D 00 H 30 M): 1003.264 ± 300.639 dyn·sec·cm^−5 | mean pulmonary arterial pressure (mPAP), mean ± SD (480 μg, 0 D 01 H 00 M): 53.8 ± 9.1 mmHg | pulmonary vascular resistance (PVR), mean ± SD (480 μg, 0 D 01 H 00 M): 1007.504 ± 290.883 dyn·sec·cm^−5 | mean pulmonary arterial pressure (mPAP), mean ± SD (480 μg, 0 D 01 H 30 M): 55.0 ± 8.0 mmHg | pulmonary vascular resistance (PVR), mean ± SD (480 μg, 0 D 01 H 30 M): 1031.647 ± 252.210 dyn·sec·cm^−5 | mean pulmonary arterial pressure (mPAP), mean ± SD (480 μg, 0 D 02 H 00 M): 52.5 ± 7.9 mmHg | pulmonary vascular resistance (PVR), mean ± SD (480 μg, 0 D 02 H 00 M): 908.704 ± 252.569 dyn·sec·cm^−5 | mean pulmonary arterial pressure (mPAP), mean ± SD (480 μg, 0 D 02 H 30 M): 54.0 ± 9.7 mmHg | pulmonary vascular resistance (PVR), mean ± SD (480 μg, 0 D 02 H 30 M): 1038.344 ± 263.837 dyn·sec·cm^−5 | mean pulmonary arterial pressure (mPAP), mean ± SD (480 μg, 0 D 03 H 00 M): 56.0 ± 11.1 mmHg | pulmonary vascular resistance (PVR), mean ± SD (480 μg, 0 D 03 H 00 M): 909.265 ± 259.510 dyn·sec·cm^−5 | mean peak change of PVR from baseline (1000 μg): −25.9% | mean pulmonary arterial pressure (mPAP), mean ± SD [3]: 34.3 ± 4.9 mmHg | pulmonary vascular resistance (PVR), mean ± SD [3]: 608.898 ± 135.153 dyn·sec·cm^−5 | mean pulmonary arterial pressure (mPAP), mean ± SD (1000 μg, 0 D 00 H 30 M): 33.8 ± 7.5 mmHg | pulmonary vascular resistance (PVR), mean ± SD (1000 μg, 0 D 00 H 30 M): 645.387 ± 211.946 dyn·sec·cm^−5 | mean pulmonary arterial pressure (mPAP), mean ± SD (1000 μg, 0 D 01 H 00 M): 31.8 ± 7.4 mmHg | pulmonary vascular resistance (PVR), mean ± SD (1000 μg, 0 D 01 H 00 M): 558.324 ± 169.860 dyn·sec·cm^−5 | mean pulmonary arterial pressure (mPAP), mean ± SD (1000 μg, 0 D 01 H […]): 32.0 ± 8.9 mmHg | pulmonary vascular resistance (PVR), mean ± SD (1000 μg, 0 D 01 H […]): 542.130 ± 187.227 dyn·sec·cm^−5 | mean pulmonary arterial pressure (mPAP), mean ± SD (1000 μg, 0 D 02 H 00 M): 32.3 ± 9.0 mmHg | pulmonary vascular resistance (PVR), mean ± SD (1000 μg, 0 D 02 H 00 M): 487.951 ± 144.546 dyn·sec·cm^−5 | mean pulmonary arterial pressure (mPAP), mean ± SD (1000 μg, 0 D 02 H […]): 33.5 ± 10.7 mmHg | pulmonary vascular resistance (PVR), mean ± SD (1000 μg, 0 D 02 H […]): 537.812 ± 204.640 dyn·sec·cm^−5 | pulmonary vascular resistance (PVR), mean ± SD (1000 μg, 0 D 03 H 00 M): 535.636 ± 235.786 dyn·sec·cm^−5 | mean peak change of PVR from baseline (2000 μg): −38.1% | mean change of PVR from baseline (2000 μg and 4000 μg groups, single inhaled dose, per protocol set N=4 each): approximately −30% | mean pulmonary arterial pressure (mPAP), mean ± SD [4]: 33.5 ± 3.4 mmHg | pulmonary vascular resistance (PVR), mean ± SD [4]: 468.608 ± 20.537 dyn·sec·cm^−5 | mean pulmonary arterial pressure (mPAP), mean ± SD (2000 μg, 0 D 00 H 30 M): 33.3 ± 6.3 mmHg | pulmonary vascular resistance (PVR), mean ± SD (2000 μg, 0 D 00 H 30 M): 464.586 ± 58.200 dyn·sec·cm^−5 | mean pulmonary arterial pressure (mPAP), mean ± SD (2000 μg, 0 D 01 H 00 M): 30.8 ± 5.6 mmHg | pulmonary vascular resistance (PVR), mean ± SD (2000 μg, 0 D 01 H 00 M): 421.730 ± 81.602 dyn·sec·cm^−5 | mean pulmonary arterial pressure (mPAP), mean ± SD (2000 μg, 0 D 01 H 30 M): 28.5 ± 7.3 mmHg | pulmonary vascular resistance (PVR), mean ± SD (2000 μg, 0 D 01 H 30 M): 340.782 ± 82.566 dyn·sec·cm^−5 | mean pulmonary arterial pressure (mPAP), mean ± SD (2000 μg, 0 D 02 H 00 M): 27.0 ± 6.1 mmHg | pulmonary vascular resistance (PVR), mean ± SD (2000 μg, 0 D 02 H 00 M): 339.924 ± 105.884 dyn·sec·cm^−5 | mean pulmonary arterial pressure (mPAP), mean ± SD (2000 μg, 0 D 02 H 30 M): 27.3 ± 6.0 mmHg | pulmonary vascular resistance (PVR), mean ± SD (2000 μg, 0 D 02 H 30 M): 338.404 ± 87.381 dyn·sec·cm^−5 | mean pulmonary arterial pressure (mPAP), mean ± SD (2000 μg, 0 D 03 H 00 M): 27.5 ± 5.2 mmHg | pulmonary vascular resistance (PVR), mean ± SD (2000 μg, 0 D 03 H 00 M): 327.284 ± 25.882 dyn·sec·cm^−5 | mean peak change of PVR from baseline (4000 μg): −36.3% | mean pulmonary arterial pressure (mPAP), mean ± SD [5]: 46.0 ± 8.1 mmHg | pulmonary vascular resistance (PVR), mean ± SD [5]: 713.998 ± 117.204 dyn·sec·cm^−5 | mean pulmonary arterial pressure (mPAP), mean ± SD (4000 μg, 0 D 00 H 30 M): 43.0 ± 4.6 mmHg | pulmonary vascular resistance (PVR), mean ± SD (4000 μg, 0 D 00 H 30 M): 616.894 ± 97.774 dyn·sec·cm^−5 | mean pulmonary arterial pressure (mPAP), mean ± SD (4000 μg, 0 D 01 H 00 M): 41.3 ± 4.6 mmHg | pulmonary vascular resistance (PVR), mean ± SD (4000 μg, 0 D 01 H 00 M): 542.417 ± 97.103 dyn·sec·cm^−5 | mean pulmonary arterial pressure (mPAP), mean ± SD (4000 μg, 0 D 01 H 30 M): 40.3 ± 5.1 mmHg | pulmonary vascular resistance (PVR), mean ± SD (4000 μg, 0 D 01 H 30 M): 573.812 ± 123.865 dyn·sec·cm^−5 | mean pulmonary arterial pressure (mPAP), mean ± SD (4000 μg, 0 D 02 H 00 M): 40.0 ± 5.3 mmHg | pulmonary vascular resistance (PVR), mean ± SD (4000 μg, 0 D 02 H 00 M): 501.07 ± 97.979 dyn·sec·cm^−5 | mean pulmonary arterial pressure (mPAP), mean ± SD (4000 μg, 0 D 02 H […]): 39.8 ± 3.0 mmHg | pulmonary vascular resistance (PVR), mean ± SD (4000 μg, 0 D 02 H […]): 526.648 ± 144.679 dyn·sec·cm^−5 | mean pulmonary arterial pressure (mPAP), mean ± SD (4000 μg, 0 D 03 H 00 M): 39.8 ± 4.1 mmHg | pulmonary vascular resistance (PVR), mean ± SD (4000 μg, 0 D 03 H 00 M): 493.103 ± 130.480 dyn·sec·cm^−5 | duration of sustained PVR effect with no decrease in response (end of the measurement period): ≥ 3 h | tolerability (single inhaled doses 240 to 4000 μg): Overall good tolerability was seen including the highest dose of 4000 μg
